Laboratory results: ChEMBL document CHEMBL4033627, “Quest for steroidomimetics: Amino acids derived steroidal and nonsteroidal architectures” (Eur J Med Chem, 2017)

Assays:
[1] = system: MDA-MB-231; experiment: Anticancer activity against human MDA-MB-231 cells after 24 hrs by MTT assay; assay type: functional, cell-based; settings: MDA-MB-231, 24 h
[2] = system: MCF7; experiment: Anticancer activity against human MCF7 cells after 24 hrs by MTT assay; assay type: functional, cell-based; settings: MCF7, 24 h

- IC50 [1]: 30 µM
- IC50 [2]: 20 µM
SMILES: Cc1ccc(S(=O)(=O)N2Cc3ccccc3OC[C@@H]2Cc2ccc(O)cc2)cc1
